Laboratory results from patent publication US20220238900A1, “All Natural Redox Flow Battery Utilizing Indigo Carmine And Derivatives Thereof” (Northeastern University, priority 2019, published 2022).
≈ marks a conversion by molar mass, not a printed value. Where “and” joins values, the source holds several entries; their conditions need not be identical. Equal values may be shown once.

What was measured:
[1] = Three-electrode half-cell cyclic voltammetry
Description: Cyclic voltammetry experiments were performed using a Biologic SP150 potentiostat controlled by Biologic EC-Lab software.

physchem = experiment: physchem
Description: FIG. 1A illustrates the natural source of the indigo dye. The most natural product from which indigo is obtained includes indican (genus indigofera plants) and isatan (woad plants or isatis tinctoria) in tropical and moderate climate zones, respectively.^[19] Irrespective of their source, the chemistry of the dye extraction involves soaking the leaves of the plants in water to facilitate the fermentation process, during which the indican readily undergoes enzymatic hydrolysis and releases indoxyl that converts to indigo by oxidation upon exposure to air. […] On the contrary, a high concentration of reactants in solution is the key to minimize the storage tank size while obtaining high specific volumetric energy density. Therefore, the design of an appropriate electrolyte for AORFB starts from identifying redox-active materials followed by optimization of the structure to achieve the maximum solubility to maximize the energy density. […] In IC-H, the substituted protons are attached to the strongly electronegative oxygen atoms and capable of forming strong hydrogen bondings. Hydrogen bondings are usually stronger than the Van Der Wall forces and dipole interactions.

[2] = Rotating disk electrode linear sweep voltammetry (Levich and Tafel analysis); assay type: physicochemical
Description: Further, the log (i0) can also be represented as FACOk0, where k0 is the electron transfer rate constant.

For `CC1(C)CCCC(C)(C)N1[O]` [TEMPO, 2,2,6,6-tetramethylpiperidine-1-oxyl, reference compound], the “redox potential (redox peaks)” value ([1]; acidic medium (0.1 M HClO4 where stated)) was “around 0.75 V vs. Ag/AgCl”.
With `O=C1/C(=C2\Nc3ccc(S(=O)(=O)O)cc3C2=O)Nc2ccc(S(=O)(=O)O)cc21` [IC-H, 5,5′-indigodisulfonic acid] the aqueous solubility (physchem) was 0.760 M (≈ 321 mg/mL), the improvement in solubility (physchem) was 22 folds and the “chemical stability on CV cycling” value ([1]; 10,000 cycles at 40 mV s^−1) was “negligible decay”. The redox peak separation ([1]; scan rates 5 mV s^−1 to 200 mV s^−1) was 40 mV, the “electron transfer (reaction) rate constant” value ([2]; 1 mM in 0.1 M HClO4, fitted Tafel plot) was 0.000282 cm/s and the diffusion coefficient ([2]; 1 mM in 0.1 M HClO4, slope of Levich plot) was 2.232×10^−5 cm^2 s^−1 and 2.23×10^−5 cm^2 s^−1. It also gave an electron transfer rate constant k0 ([2]; LSV data at 2700 rpm, Tafel plot) of 0.000282 cm/s.
